{"source": "patent US20230210858A1", "about": "“PODOSOMES AS A THERAPEUTIC TARGET FOR INTRACRANIAL ANEURYSM” (THE BOARD OF REGENTS OF THE UNIVERSITY OF TEXAS SYSTEM, priority 2022, published 2023)", "key": {"[1]": {"tested_on": "Thsd1-deficient zebrafish", "experiment": "Intracranial hemorrhage in thsd1 knockdown zebrafish embryos treated with SRC inhibitor (FIG. 8)", "type": "in vivo", "settings": "vs DMSO control, n>120 embryos, p<0.05, FIG. 8b", "protocol": "(§1) Anti-sense morpholinos against thsd1, atg5 or talin was injected into one-cell stage zebrafish singly or in combination to silence the gene accordingly. At day 2 to day 3, embryos will be checked under regular optical microscope. Embryos with intracranial hemorrhages will be counted and imaged by Olympus microscope.\nIntracranial aneurysm and hemorrhage are tightly associated with compromised cerebrovascular integrity. Recently, zebrafish have gained additional popularity as a vertebrate model organism for studying the cerebrovasculature. Since zebrafish embryos are transparent, intracranial hemorrhage can be directly observed using a standard microscope. Furthermore, zebrafish fecundity and rapid development permits rapid phenotypic evaluation as intracranial hemorrhage in zebrafish fry are detectable as early as 2-3 days post fertilization. Importantly, gain-of-function and loss-of-function approaches are well established in zebrafish that include morpholino and mRNA injections and more recently, through applications of CRISPR/Cas9 technology.\nFIGS. 8a-8b are experimental results depicting that loss-of-function of Thsd1 induces SRC-dependent intracranial hemorrhage in zebrafish, and treatment with a PP2 SRC inhibitor prevents intracranial hemorrhage in Thsd1-deficient zebrafish. […] FIG. 8b is a chart quantifying the number of embryos with intracranial hemorrhage (%)."}, "[2]": {"tested_on": "thsd1-MO injected zebrafish embryos", "experiment": "Hemorrhagic incidence in thsd1-MO injected zebrafish embryos (Table 5 constructs) treated with SRC inhibitors (FIG. 13)", "type": "in vivo", "protocol": "as §1\nSubsequently, the nucleic acid constructs encoding these sequences were introduced into zebrafish thsd1 by PCR mutagenesis. Specifically, the thsd1 variant or the WT sequence was subcloned into pCS2+ zebrafish vector for expression. These constructs were used as tools to study cerebrovascular integrity mediated by thsd1 WT and rare variants in the zebrafish animal model selected to model a human condition.\nAll embryos were injected by thsd1-MO and the hemorrhagic incidence was counted under microscope. For each injection, around 80-120 embryos were injected. *p<0.05, **p<0.01."}}}
{"smiles": "CC(C)(C)n1nc(-c2ccc(Cl)cc2)c2c(N)ncnc21", "note": "[PP2]", "values": [{"measurement": "number of embryos with intracranial hemorrhage (%)", "setting": "[1]", "result": "ameliorated Thsd1-dependent hemorrhage incidents"}, {"measurement": "hemorrhagic incidence (intracranial hemorrhage)", "setting": "[2]; 10 uM in embryo water at 1 dpf for 24 hours", "result": "rescued intracranial hemorrhage"}]}
{"smiles": "CN(C)S(=O)(=O)c1ccc2c(c1)/C(=C/c1cc3c([nH]1)CCCC3)C(=O)N2", "note": "[SU5565]", "values": [{"measurement": "hemorrhagic incidence (intracranial hemorrhage)", "setting": "[2]; 1 uM in embryo water at 1 dpf for 24 hours", "result": "rescued intracranial hemorrhage"}]}
